Like-named read-outs stand apart in the source and are kept apart here.
Key:
[1] = target: human recombinant 5-HT2A receptor (Homo sapiens (Human), UniProt P28223); experiment: 5-HT2A receptor binding inhibition test ([3H]-Ketanserin); conditions: Jump-In HEK cell membrane
Experimental: Test Example 1: 5-HT2A Receptor Binding Inhibition Test
(§1) (Each Experimental Condition)
Cell membrane: Jump-In HEK cell membrane (expressing human recombinant 5-HT2A receptor)
(§2) Assay buffer: Tris-HCl 50 mmol/L (pH 7.4) containing NaCl 120 mmol/L, MgCl2.6H2O 1 mmol/L, KCl 5 mmol/L, 0.1% BSA, and CaCl2 2 mmol/L
Radioactive ligand: [^3H]-Ketanserin around Kd value calculated by the following method
(§3) Non-specific ligand: Serotonin HCl
(§4) The Kd value was calculated when the lot of cell membrane was changed. In advance, 0.5 μL of a 1 mmol/L compound for non-specific binding calculation dissolved in DMSO or DMSO was dispensed into a microplate, and the cell membrane was diluted with an Assay buffer. The radioactive ligand solution was serially diluted and the count was confirmed with a liquid scintillator. Assay buffer containing diluted cell membrane was dispensed into a microplate at 50 μL/well. Then, the radioactive ligand solution was dispensed into a microplate at 50 μL/well, and the plate was sealed. It was allowed to stand at room temperature (25° C.) for 1.5 hours. During this period, 50 mmol/L Tris-HCl (pH 7.4) was dispensed into a GF/B UniFilter plate at 50 μL/well and allowed to stand at 4° C. for 1 hour or longer. After that, filtration was performed with Cell harvester (PerkinElmer). The radioactive ligand solution was dispensed into an empty well of the GF/B UniFilter plate at 10 μL/well. After the GF/B UniFilter plate was dried at room temperature, MicroScinti 20 was dispensed into the GF/B UniFilter plate at 50 μL/well, and the plate was sealed. The GF/B UniFilter plate was allowed to stand overnight at room temperature. The radioactivity of [^3H]-Ketanserin bound to the 5-HT2A receptor was measured using Microbeta2 (PerkinElmer) at a measurement time of 1 min/well. The Saturation curve was drawn from the measured value, and the Kd value was calculated from the slope of the Scatchard Plot.
(§5) (Binding Test of the Compound According to the Present Invention)
(§6) In advance, 0.5 μL of the compound solution dissolved in DMSO was dispensed into a microplate, and the cell membrane and the hot ligand were diluted with Assay buffer, respectively. Then, the Assay buffer containing the diluted cell membrane was dispensed into a microplate at 50 μL/well. Then, the radioactive ligand solution was dispensed into a microplate at 50 μL/well, and the plate was sealed. Then, it was allowed to stand at room temperature (25° C.) for 1.5 hours. During this period, 50 mmol/L Tris-HCl (pH 7.4) was dispensed into a GF/B UniFilter plate at 50 μL/well and allowed to stand at 4° C. for 1 hour or longer. After that, filtration was performed with Cell harvester (PerkinElmer). After the GF/B UniFilter plate was dried at room temperature, MicroScinti 20 was dispensed into the GF/B UniFilter plate at 50 μL/well, and the plate was sealed. The GF/B UniFilter plate was allowed to stand overnight at room temperature. The radioactivity of [^3H]-Ketanserin bound to the 5-HT2A receptor was measured using Microbeta2 (PerkinElmer) at a measurement time of 1 min/well. The non-specific binding was calculated from the radioactivity of [^3H]-Ketanserin in the presence of […] Serotonin HCl with the unlabeled ligand, and the total binding was calculated from the radioactivity of [^3H]-Ketanserin in the absence of the compound according to the present invention (Vehicle). Finally, the Ki value was calculated from the dose-response curve.
(§7) (The binding activity of the compound according to the present invention was calculated from the following binding inhibition rate (%).)
(§8) Inhibition rate (%)=[1−(c−a)/(b−a)]×100 • a; mean cpm of non-specific binding • b; mean cpm of total binding • c; cpm in the presence of the test compound

[2] = target: human recombinant 5-HT2C receptor (Homo sapiens (Human), UniProt P28335); experiment: 5-HT2C receptor binding inhibition test ([3H]-Mesulergine); conditions: Jump-In HEK cell membrane, [3H]-Mesulergine
human recombinant 5-HT2C receptor, sequence (P28335 33-458): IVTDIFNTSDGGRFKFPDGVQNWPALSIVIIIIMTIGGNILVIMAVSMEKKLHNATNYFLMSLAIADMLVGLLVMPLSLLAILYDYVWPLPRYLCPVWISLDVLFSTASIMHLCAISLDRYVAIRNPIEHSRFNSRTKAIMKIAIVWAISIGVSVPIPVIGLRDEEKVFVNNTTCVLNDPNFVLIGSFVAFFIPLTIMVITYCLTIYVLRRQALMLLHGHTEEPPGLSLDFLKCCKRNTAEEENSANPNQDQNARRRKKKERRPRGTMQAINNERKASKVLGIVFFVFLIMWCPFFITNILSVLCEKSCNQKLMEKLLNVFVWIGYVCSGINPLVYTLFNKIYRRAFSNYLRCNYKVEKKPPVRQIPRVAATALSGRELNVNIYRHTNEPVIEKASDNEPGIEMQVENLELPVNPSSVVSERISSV
Experimental: as §1
Cell membrane: Jump-In HEK cell membrane (expressing human recombinant 5-HT2C receptor)
as §2
Radioactive ligand: [^3H]-Mesulergine around Kd value calculated by the following method
as §3
as §4, with “[…]” for “4°”, “The radioactivity of [^3H]-Ketanserin bound to the 5-HT2A receptor was measured using Microbeta2 (PerkinElmer) at a measurement time of 1 min/well.” left out
as §5
as §6, with “37° C.” for “room temperature (25° C.)”, “2” for “1.5”, “The radioactivity of [^3H]-Ketanserin bound to the 5-HT2A receptor was measured using Microbeta2 (PerkinElmer) at a measurement time of 1 min/well.” left out, “[^3H]-Mesulergine” for “[^3H]-Ketanserin”
as §7, §8

[3] = read-out: human serotonin 5-HT2A receptor binding activity, Ki value
[4] = read-out: human serotonin 5-HT2C receptor binding inhibitory activity, Ki value

human recombinant 5-HT2A receptor, sequence (P28223 whole entry): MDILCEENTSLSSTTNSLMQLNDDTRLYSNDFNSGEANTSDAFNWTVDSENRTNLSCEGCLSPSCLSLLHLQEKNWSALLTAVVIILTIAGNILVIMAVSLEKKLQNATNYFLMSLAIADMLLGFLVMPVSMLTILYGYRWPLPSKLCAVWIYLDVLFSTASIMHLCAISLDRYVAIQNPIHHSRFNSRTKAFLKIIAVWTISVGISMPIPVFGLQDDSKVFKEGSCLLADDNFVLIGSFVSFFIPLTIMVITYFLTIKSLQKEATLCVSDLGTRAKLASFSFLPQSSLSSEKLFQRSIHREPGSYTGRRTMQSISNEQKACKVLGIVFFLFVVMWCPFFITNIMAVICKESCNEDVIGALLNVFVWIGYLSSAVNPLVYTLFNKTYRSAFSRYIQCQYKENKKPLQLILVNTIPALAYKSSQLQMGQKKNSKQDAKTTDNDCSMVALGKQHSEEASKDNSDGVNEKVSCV

## CC(C)COc1ccc(CN(Cc2ccn(C)n2)C(=O)NC2CCCN(C)CC2)cc1 (racemic) [Compound I-004]
[1]; [3]
  Ki: 4.51 nM
[2]; [4]
  Ki: 11.5 nM

## CC(C)COc1ccc(CN(Cc2ccn(C)n2)C(=O)N[C@@H]2CCNC[C@H]2F)cc1 (racemic) [Compound I-018]
[1]; read-out: h-5-HT2A Ki
  Ki: 10 to 100 nM
[2]; read-out: h-5-HT2C Ki
  Ki: 10 to 100 nM

## CC(C)COc1ccc(CN(Cc2ccc(F)cn2)C(=O)NC2CCN(C)CC23CC3)cc1 (racemic) [Compound I-044]
[1]; read-out: h-5-HT2A Ki
  Ki: < 10 nM
[2]; read-out: h-5-HT2C Ki
  Ki: < 10 nM

## CC(C)COc1ccc(CN(Cc2ccn(C)n2)C(=O)NC2CCN(C)CC23CC3)cc1 (racemic) [Compound I-045]
[1]; read-out: h-5-HT2A Ki
  Ki: < 10 nM
[2]; read-out: h-5-HT2C Ki
  Ki: < 10 nM

## CC(C)COc1ccc(CN(Cc2ccn(C)n2)C(=O)NC2CCN(C)C2)cc1 (racemic) [Compound I-054]
[1]; read-out: h-5-HT2A Ki
  Ki: < 10 nM

## CC(C)COc1ccc(CN(Cc2ccn(C)n2)C(=O)NC2CCN(C)C3(CCC3)C2)cc1 (racemic) [Compound I-067]
[1]; read-out: h-5-HT2A Ki
  Ki: < 10 nM
[2]; read-out: h-5-HT2C Ki
  Ki: < 10 nM

## CCCCOc1ccc(CN(Cc2coc(C)n2)C(=O)C(F)C2CCN(C)CC2)cc1F (racemic) [Compound I-124]
[1]; read-out: h-5-HT2A Ki
  Ki: < 10 nM
[2]; read-out: h-5-HT2C Ki
  Ki: < 10 nM

## CC(C)COc1ccc(CN(Cc2ccc(F)cn2)C(=O)N[C@H]2CCNC[C@H]2F)cc1 (single isomer, unassigned) [Compound I-006]
[1]; [3]
  Ki: 0.968 nM
[2]; [4]
  Ki: 2.47 nM

## CC(C)COc1ccc(CN(Cc2ccc(F)cn2)C(=O)N[C@@H]2CCNC[C@@H]2F)cc1 (single isomer, unassigned) [Compound I-022]
[1]; read-out: h-5-HT2A Ki
  Ki: 10 to 100 nM
[2]; read-out: h-5-HT2C Ki
  Ki: 10 to 100 nM

## CC(C)COc1ccc(CN(Cc2ccn(C)n2)C(=O)NC2C3CCC2CN(C)C3)cc1 (single isomer, unassigned) [Compound I-075]
[1]; read-out: h-5-HT2A Ki
  Ki: 10 to 100 nM
[2]; read-out: h-5-HT2C Ki
  Ki: 10 to 100 nM

## CC(C)COc1ccc(CN(Cc2ccsc2)C(=O)NC2CCN(C)CC2)cc1 [Compound I-002]
[1]; read-out: h-5-HT2A Ki
  Ki: < 10 nM
[2]; read-out: h-5-HT2C Ki
  Ki: 10 to 100 nM

## CN1CCC(NC(=O)N(Cc2ccc(Oc3ccccc3)cc2)Cc2ccn(C)n2)CC1 [Compound I-003]
[1]; [3]
  Ki: 9.93 nM
[2]; [4]
  Ki: 8.39 nM

## Cc1cc(CN(Cc2ccc(OCC(C)C)cc2)C(=O)NC2CCN(C)CC2)nn1C [Compound I-005]
[1]; read-out: h-5-HT2A Ki
  Ki: < 10 nM
[2]; read-out: h-5-HT2C Ki
  Ki: 10 to 100 nM

## CC(C)COc1ccc(CN(Cc2ccccn2)C(=O)NC2CCN(C)CC2)cc1 [Compound I-007]
[1]; read-out: h-5-HT2A Ki
  Ki: < 10 nM
[2]; read-out: h-5-HT2C Ki
  Ki: 10 to 100 nM

## Cc1ccc(CN(Cc2ccc(OCC(C)C)cc2)C(=O)NC2CCN(C)CC2)s1 [Compound I-008]
[1]; read-out: h-5-HT2A Ki
  Ki: < 10 nM
[2]; read-out: h-5-HT2C Ki
  Ki: < 10 nM

## CC(C)COc1ccc(CN(Cc2cccn2C)C(=O)NC2CCN(C)CC2)cc1 [Compound I-009]
[1]; read-out: h-5-HT2A Ki
  Ki: < 10 nM
[2]; read-out: h-5-HT2C Ki
  Ki: 100 to 5000 nM

## COc1ccc(CN(Cc2ccn(C)n2)C(=O)NC2CCN(C)CC2)cc1C [Compound I-010]
[1]; read-out: h-5-HT2A Ki
  Ki: 10 to 100 nM
[2]; read-out: h-5-HT2C Ki
  Ki: 100 to 5000 nM

## CN1CCC(NC(=O)N(Cc2ccc(OCCO)cc2)Cc2ccn(C)n2)CC1 [Compound I-011]
[1]; read-out: h-5-HT2A Ki
  Ki: 100 to 5000 nM
[2]; read-out: h-5-HT2C Ki
  Ki: 100 to 5000 nM

## CC(C)COc1ccc(CN(Cc2ccn(C)n2)C(=O)CC2CCN(C)CC2)cc1 [Compound I-012]
[1]; [3]
  Ki: 6.02 nM
[2]; [4]
  Ki: 33 nM

## COc1ccc(CN(Cc2ccn(C)n2)C(=O)NC2CCN(C)CC2)c(F)c1 [Compound I-013]
[1]; read-out: h-5-HT2A Ki
  Ki: 10 to 100 nM
[2]; read-out: h-5-HT2C Ki
  Ki: 10 to 100 nM

## COc1ccc(CN(Cc2ccn(C)n2)C(=O)NC2CCN(C)CC2)cc1F [Compound I-014]
[1]; read-out: h-5-HT2A Ki
  Ki: < 10 nM
[2]; read-out: h-5-HT2C Ki
  Ki: 10 to 100 nM

## CN1CCC(NC(=O)N(Cc2ccc3c(c2)CCO3)Cc2ccn(C)n2)CC1 [Compound I-015]
[1]; [3]
  Ki: 45.5 nM

## CC(C)COc1ccc(CN(Cc2ccc(F)cn2)C(=O)NC2CCNCC2)cc1 [Compound I-017]
[1]; read-out: h-5-HT2A Ki
  Ki: < 10 nM
[2]; read-out: h-5-HT2C Ki
  Ki: < 10 nM

## CC(C)COc1ccc(CN(Cc2ccncn2)C(=O)NC2CCN(C)CC2)cc1 [Compound I-019]
[1]; read-out: h-5-HT2A Ki
  Ki: 10 to 100 nM
[2]; read-out: h-5-HT2C Ki
  Ki: 100 to 5000 nM

## CC(C)COc1ccc(CN(Cc2cnccn2)C(=O)NC2CCN(C)CC2)cc1 [Compound I-020]
[1]; read-out: h-5-HT2A Ki
  Ki: 10 to 100 nM
[2]; read-out: h-5-HT2C Ki
  Ki: 10 to 100 nM

## CCCOc1ccc(CN(Cc2ccc(F)cn2)C(=O)NC2CCN(C)CC2)cc1 [Compound I-021]
[1]; read-out: h-5-HT2A Ki
  Ki: < 10 nM
[2]; read-out: h-5-HT2C Ki
  Ki: < 10 nM

## Cc1cccnc1CN(Cc1ccc(OCC(C)C)cc1)C(=O)NC1CCN(C)CC1 [Compound I-023]
[1]; read-out: h-5-HT2A Ki
  Ki: < 10 nM
[2]; read-out: h-5-HT2C Ki
  Ki: 10 to 100 nM

## CC(C)COc1ccc(CN(Cc2ccco2)C(=O)NC2CCN(C)CC2)cc1 [Compound I-024]
[1]; read-out: h-5-HT2A Ki
  Ki: < 10 nM
[2]; read-out: h-5-HT2C Ki
  Ki: < 10 nM

## CC(C)COc1ccc(CN(Cc2ccncc2)C(=O)NC2CCN(C)CC2)cc1 [Compound I-052]
[1]; read-out: h-5-HT2A Ki
  Ki: 10 to 100 nM

## CC(C)COc1ccc(CN(Cc2ccnn2C)C(=O)NC2CCN(C)CC2)cc1 [Compound I-053]
[1]; read-out: h-5-HT2A Ki
  Ki: 100 to 5000 nM

## CC(C)COc1ccc(CN(Cc2cc(-c3ccccc3)n(C)n2)C(=O)NC2CCN(C)CC2)cc1 [Compound I-055]
[1]; read-out: h-5-HT2A Ki
  Ki: 10 to 100 nM

## CC(C)COc1ccc(CN(Cc2cc(C(F)(F)F)ccn2)C(=O)NC2CCN(C)CC2)cc1 [Compound I-056]
[1]; read-out: h-5-HT2A Ki
  Ki: 10 to 100 nM

## CC(C)COc1ccc(CN(Cc2cccnc2)C(=O)NC2CCN(C)CC2)cc1 [Compound I-057]
[1]; read-out: h-5-HT2A Ki
  Ki: 100 to 5000 nM

## CC(C)COc1ccc(CN(Cc2ccn(C)n2)C(=O)N[C@@H]2C[C@H]3CC[C@@H](C2)N3C)cc1 [Compound I-062]
[1]; read-out: h-5-HT2A Ki
  Ki: 10 to 100 nM

## CC(C)COc1ccc(CN(Cc2ccn(C)n2)C(=O)NC2CCN(C3COC3)CC2)cc1 [Compound I-071]
[1]; read-out: h-5-HT2A Ki
  Ki: 100 to 5000 nM

## CNC(=O)CN1CCC(NC(=O)N(Cc2ccc(OCC(C)C)cc2)Cc2ccn(C)n2)CC1 [Compound I-072]
[1]; read-out: h-5-HT2A Ki
  Ki: 100 to 5000 nM

## CC(C)COc1ccc(CN(Cc2ccn(C)n2)C(=O)N[C@H]2C[C@H]3CCC[C@@H](C2)N3C)cc1 [Compound I-073]
[1]; read-out: h-5-HT2A Ki
  Ki: 100 to 5000 nM

## CC(C)COc1ccc(CN(Cc2ccn(C)n2)C(=O)N[C@@H]2C[C@H]3CCC[C@@H](C2)N3C)cc1 [Compound I-074]
[1]; read-out: h-5-HT2A Ki
  Ki: < 10 nM
